Measurements taken from patent US12534469B2 (CHILDREN'S HOSPITAL MEDICAL CENTER, priority 2020, dated 2026).
“Also recorded” adds a separate entry of the source.

Key:
[1] = biological target: T1, FLT3 R834Q (Homo sapiens, UniProt P36888, R834Q); experiment: DiscoverX KINOMEscan competition binding assay, FLT3 R834Q
T1 construct: purchased DiscoverX (KINOMEscan); host or cells: E. coli (T7 phage) or HEK-293
T1 sequence (P36888 27-993 R834Q): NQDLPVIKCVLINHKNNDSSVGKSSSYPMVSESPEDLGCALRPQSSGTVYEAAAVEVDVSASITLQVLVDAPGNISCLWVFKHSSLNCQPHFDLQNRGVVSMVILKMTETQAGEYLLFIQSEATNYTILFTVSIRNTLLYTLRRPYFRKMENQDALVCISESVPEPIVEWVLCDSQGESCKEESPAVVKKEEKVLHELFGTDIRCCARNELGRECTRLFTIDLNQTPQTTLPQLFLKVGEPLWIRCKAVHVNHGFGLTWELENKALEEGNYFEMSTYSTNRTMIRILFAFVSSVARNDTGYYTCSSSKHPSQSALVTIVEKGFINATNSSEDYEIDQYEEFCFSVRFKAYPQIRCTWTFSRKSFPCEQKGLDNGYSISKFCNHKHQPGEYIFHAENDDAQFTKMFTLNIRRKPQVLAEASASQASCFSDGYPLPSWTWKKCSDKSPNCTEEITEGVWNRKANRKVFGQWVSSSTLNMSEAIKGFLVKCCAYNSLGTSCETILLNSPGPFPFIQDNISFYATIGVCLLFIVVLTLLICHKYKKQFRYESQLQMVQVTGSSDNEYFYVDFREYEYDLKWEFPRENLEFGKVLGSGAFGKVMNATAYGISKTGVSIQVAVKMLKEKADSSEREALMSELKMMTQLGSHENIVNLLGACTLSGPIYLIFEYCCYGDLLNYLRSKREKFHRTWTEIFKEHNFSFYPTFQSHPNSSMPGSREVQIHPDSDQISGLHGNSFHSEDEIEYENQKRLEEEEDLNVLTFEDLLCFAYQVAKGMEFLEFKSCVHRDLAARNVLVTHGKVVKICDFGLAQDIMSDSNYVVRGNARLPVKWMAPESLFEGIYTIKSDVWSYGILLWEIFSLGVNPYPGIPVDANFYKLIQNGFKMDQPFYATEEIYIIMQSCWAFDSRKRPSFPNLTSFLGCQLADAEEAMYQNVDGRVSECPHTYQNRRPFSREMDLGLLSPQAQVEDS
Excerpt: Kinase binding data were obtained for various exemplary compounds prepared according to Examples 1-25 using the DiscoverX KINOMEscan® active site-directed competition binding site-directed assay protocol described below. […] As a result, the data report thermodynamic interaction affinities (Kd values), rather than IC50 values that are dependent on ATP concentrations. The assay uses a DNA-tagged version of the protein kinase, and an immobilized ligand bound to a solid support. Compounds that directly or indirectly prevent kinase binding to the immobilized ligand reduce the amount of kinase captured on the solid support, which is detected using an ultra-sensitive qPCR method. Affinity constants reported from the assay have been reported to be independent of the immobilized ligand used that is coupled to the solid support (See supplemental information in Fabian, M. A. et. al., (2005) Nat. Biotechnol. 23, 329-336; Wodicka, L. M. et. al., (2010) Chem. Biol. 17, 1241-1249.)
Kinase-tagged T7 phage strains were prepared in an E. coli host derived from the BL21 strain. E. coli were grown to log-phase and infected with T7 phage and incubated with shaking at 32° C. until lysis. The lysates were centrifuged and filtered to remove cell debris. The remaining kinases were produced in HEK-293 cells and subsequently tagged with DNA for qPCR detection. […] The liganded beads were blocked with excess biotin and washed with blocking buffer (SeaBlock (Pierce), 1% BSA, 0.05% Tween 20, 1 mM DTT) to remove unbound ligand and to reduce non-specific binding. […] Test compounds were prepared as 111× stocks in 100% DMSO. Kds were determined using an 11-point 3-fold compound dilution series with three DMSO control points. […] The compounds were then diluted directly into the assays such that the final concentration of DMSO was 0.9%. All reactions were performed in polypropylene 384-well plates. Each was a final volume of 0.02 mL. […] The kinase concentration in the eluates was measured by qPCR.
Binding constants (Kds) were calculated with a standard dose-response curve using the Hill equation. […]

[2] = tested on: MOLM14 (D835Y) cells; experiment: Combination drug screening, 10 x 10 matrix, cell viability (Cell Titer Glo); assay type: cell-based; conditions: for Interaction with Venetoclax / Sum Excess HSA: combination with Venetoclax, 10 x 10 dataset; for Sum Excess HSA: 48 hours
Experimental: Briefly, 10 nL of compounds were acoustically dispensed into 1536-well white polystyrene tissue culture-treated plates with an Echo 550 acoustic liquid handler (Labcyte). MOLM14 (D835Y) cells were then added to compound-containing plates at a density of 500-cells/well in 5 μL of medium. A 10-point custom concentration range was used for all listed drugs. Plates were incubated for 48 hours at standard incubator conditions covered by a stainless steel gasketed lid to prevent evaporation. 48 h post compound addition, 3 μL of Cell Titer Glo (Promega) were added to each well and plates were incubated at room temperature for 15 minutes with the stainless-steel lid in place. Luminescence readings were taken using a Viewlux imager (PerkinElmer) with a 2 second exposure time per plate.
However, different methodologies may yield different numerical scores, and different definitions of what constitutes a deviation from mere additivity vs true drug synergy.
However, the utility in certain drug combinations vs others should not be distinguished based on cutoffs between HSA scores, because the score itself is only a relative indicator that is completely dependent on experimental design and is not an absolute number. Furthermore, the concept of what constitutes clinically meaningful drug synergy is something that is still being debated, not only between pharmacologists and physicians, but amongst pharmacologists themselves.

Row | SMILES | Kd [1] [nM] | Interaction with Venetoclax [2] | Sum Excess HSA [2] | concentration of compound required to fully potentiate a 7.8 nM concentration of Venetoclax to <5% of the maximum response ([2]; 7.8 nM Venetoclax, 10×10 combination) [nM] | concentration at which synergy (Delta Bliss score) is highest ([2]; combined with 15.6 nM Venetoclax, 10×10 array) [nM]
1 | COc1cc2ncc(-c3cccc(N[C@H]4CNC[C@@H]4F)n3)n2nc1C1CC1 [Compound 96, 6-(6-cyclopropyl-7-methoxyimidazo[1,2-b]pyridazin-3-yl)-N-((3S,4S)-4-fluoropyrrolidin-3-yl)pyridin-2-amine] | 1.6 | profound synergism | −543.2 |  | 
2 | COc1cc2ncc(-c3cccc(N[C@H]4CNC[C@@H]4C(F)(F)F)n3)n2nc1C1CC1 [Compound 99, 6-(6-cyclopropyl-7-methoxyimidazo[1,2-b]pyridazin-3-yl)-N-((3R,4S)-4-(trifluoromethyl)pyrrolidin-3-yl)pyridin-2-amine] |  | profound synergism; also recorded: Synergistic | −789.4 |  | 
3 | COc1cc2ncc(-c3nc(N[C@@H]4CCCNC4)c(F)cc3F)n2nc1C1CC1 [Compound 106, (R)-6-(6-cyclopropyl-7-methoxyimidazo[1,2-b]pyridazin-3-yl)-3,5-difluoro-N-(piperidin-3-yl)pyridin-2-amine] |  | profound synergism | −334 | 3.1 | 
4 | COc1cc2ncc(-c3nc(N[C@H]4CNCC[C@@H]4F)c(F)cc3F)n2nc1C1CC1 [Compound 108, 6-(6-cyclopropyl-7-methoxyimidazo[1,2-b]pyridazin-3-yl)-3,5-difluoro-N-((3S,4S)-4-fluoropiperidin-3-yl)pyridin-2-amine] |  | profound synergism | −480.4 |  | 0.8 to 1.6

Continued, in another order:

Row | Kd [1] [nM] | SMILES | Interaction with Venetoclax [2] | Sum Excess HSA [2] | concentration of compound required to fully potentiate a 7.8 nM concentration of Venetoclax to <5% of the maximum response ([2]; 7.8 nM Venetoclax, 10×10 combination) [nM] | concentration at which synergy (Delta Bliss score) is highest ([2]; combined with 15.6 nM Venetoclax, 10×10 array) [nM]
5 | 0.8 | COc1cc2ncc(-c3cccc(N[C@@H]4CCNC4)n3)n2nc1C1CC1 [Compound 97, (R)-6-(6-cyclopropyl-7-methoxyimidazo[1,2-b]pyridazin-3-yl)-N-(pyrrolidin-3-yl)pyridin-2-amine] |  |  |  | 
6 | 0.61 | COc1cc2ncc(-c3cccc(N[C@H]4CNCC[C@@H]4F)n3)n2nc1C1CC1 [Compound 102, 6-(6-cyclopropyl-7-methoxyimidazo[1,2-b]pyridazin-3-yl)-N-((3S,4S)-4-fluoropiperidin-3-yl)pyridin-2-amine] | profound synergism | −188.8 |  | 
